13 substances from patent US20110039762A1, “TARGETED ANTIMICROBIAL MOIETIES” (C3 JIAN, INC., priority 2009, published 2011) can be followed below.

“Also recorded” adds a separate entry of the source.

The subject of one test is microorganisms. The test is described as follows: Peptides having multiple activities (targeting/binding, antimicrobial, growth or phenotype altering). The source says:
In certain embodiments, peptides described herein can have multiple activities. Thus for example, a peptide can have both binding/targeting activity and antimicrobial activity. Such peptides can be used, e.g., in a chimeric construct, for any or all of these properties. Thus, for example, a peptide designated “B” in Table 8 can be used as a targeting peptide. If it is also designated G or M it can also be used for antimicrobial activity.

Another test concerns MRSA. The test is described as follows: Kill or inhibit growth/proliferation; morphology, biofilm and growth disruption (Tables 5, 6). Also: test concentration or dose not given here. On the set-up: key: A: Peptide aggregates; B: Less hyphal formation; Clumps; Diffuse clumps and small polyps; F: Diffuse growth; H: Thin; I: Growth inhibition; Microcolony formation; Rippled; Small polyps; Thick; W: Halo formation on top, microlonies on bottom. It is filed as cell-based, Methicillin-resistant Staphylococcus aureus.

The subject of another test is S. epidermidis. Described as above. Format: cell-based, Staphylococcus epidermidis. On the set-up: key: A: Peptide aggregates; B: Less hyphal formation; Clumps; Diffuse clumps and small polyps; F: Diffuse growth; H: Thin; I: Growth inhibition; Microcolony formation; Rippled; Small polyps; Thick; W: Halo formation on top, microlonies on bottom.
The subject of the next test is E. coli. Described as above. It is filed as cell-based, Escherichia coli. On the set-up: key: A: Peptide aggregates; B: Less hyphal formation; Clumps; Diffuse clumps and small polyps; F: Diffuse growth; H: Thin; I: Growth inhibition; Microcolony formation; Rippled; Small polyps; Thick; W: Halo formation on top, microlonies on bottom.
For another test, the system named is S. pneumoniae. Described as above. Format: cell-based, Streptococcus pneumoniae. On the set-up: key: A: Peptide aggregates; B: Less hyphal formation; Clumps; Diffuse clumps and small polyps; F: Diffuse growth; H: Thin; I: Growth inhibition; Microcolony formation; Rippled; Small polyps; Thick; W: Halo formation on top, microlonies on bottom. Also: test concentration or dose not given here.
The test system of the next test is C. jejuni. The test is described as above. Format: cell-based, Campylobacter jejuni. More on the design: key: A: Peptide aggregates; B: Less hyphal formation; Clumps; Diffuse clumps and small polyps; F: Diffuse growth; H: Thin; I: Growth inhibition; Microcolony formation; Rippled; Small polyps; Thick; W: Halo formation on top, microlonies on bottom. Also: test concentration or dose not given here.
The next test has as its system E. faecalis. Described as above. On the set-up: key: A: Peptide aggregates; B: Less hyphal formation; Clumps; Diffuse clumps and small polyps; F: Diffuse growth; H: Thin; I: Growth inhibition; Microcolony formation; Rippled; Small polyps; Thick; W: Halo formation on top, microlonies on bottom. It is filed as cell-based, Enterococcus faecalis. Also: test concentration or dose not given here.
For test [1], the system named is microorganisms (e.g., bacteria, yeasts, fungi). The test is described as follows: Targeting peptide binding to target microorganisms (Table 3). As to conditions: preferably 1x PBS; for Target(s): microorganism(s) the targeting peptide binds.
Where [2] appears, read: peptide binding conducted in aqueous buffers varied by peptide solubility.
For Organism, effect in this document: test concentration or dose not given here.

With “PF-418: peptide having multiple activities (FFLVHFYIRKRKGKVSIFLNYF; Peptide with targeting and/or antimicrobial activity)”, the Activities entry in the test on microorganisms was “G B”. Besides, the “Organism, effect” value with MRSA is listed as “MRSA (D)”; in the test on S. epidermidis it was “S. epidermidis (M)”; in the test with E. coli it was “E. coli (C)”; with S. pneumoniae, “S. pneumoniae (D)”; in the test on C. jejuni, “C. jejuni (D)”; with E. faecalis, “E. faecalis (D)”.

Consider “PF-610: peptide having multiple activities (VFLKLKTSKIDLASIIFYP; Peptide with targeting and/or antimicrobial activity)”, for which the Activities entry in the test with microorganisms is listed as “G B”. In addition, the “Organism, effect” value in the test with MRSA is on record as “MRSA (D)”; in the test with S. epidermidis it was “S. epidermidis (C)”; in the test on E. coli, “E. coli (C)”; in the test on S. pneumoniae, “S. pneumoniae (D)”; with C. jejuni, “C. jejuni (D)”; in the test with E. faecalis it was “E. faecalis (D)”.

“PF-576: peptide having multiple activities (chain 1 AYSGELPEPLVRKMSKEQVRSVMGK; chain 2 AYSGELPEPLVRKMSKEQVRSVMGK; Peptide with targeting and/or antimicrobial activity)”: the Activities result in the test with microorganisms is listed as “G B”. For the same substance, the “Organism, effect” value in the test with MRSA is “MRSA (R)”; in the test with S. epidermidis it was “S. epidermidis (A)”; in the test with E. coli, “E. coli (A)”; in the test with S. pneumoniae, “S. pneumoniae (C)”; in the test on C. jejuni, “C. jejuni (C)”. In addition, the “Target(s)” value in test [1] (setting [2]) is listed as “M. luteus; also recorded: P. mirabilis; also recorded: E. coli; also recorded: P. aeruginosa; also recorded: C. albicans; also recorded: S. pneumoniae”.

For the substance “PF-363: peptide having multiple activities (chain 1 SMLSVTVMCLMHASVAANQAMEKKV; chain 2 SMLSVTVMCLMHASVAANQAMEKKV; Peptide with targeting and/or antimicrobial activity)”, the Activities entry with microorganisms is recorded as “G B”. For the same substance, the “Organism, effect” value in the test with MRSA is on record as “MRSA (H)”; with S. epidermidis it was “S. epidermidis (S)”; in the test with E. coli it was “E. coli (C)”; in the test with S. pneumoniae, “S. pneumoniae (R)”; in the test with C. jejuni it was “C. jejuni (D)”; with E. faecalis it was “E. faecalis (D)”. Besides, the “Target(s)” value in test [1] (binding in aqueous buffers depending on peptide solubility) is “B. subtilis; also recorded: E. coli; also recorded: P. aeruginosa; also recorded: C. albicans; also recorded: S. pneumoniae; also recorded: E. faecalis”.

With “PF-390: peptide having multiple activities (chain 1 VVAYVITQVGAIRF; chain 2 VVAYVITQVGAIRF; Peptide with targeting and/or antimicrobial activity)”, the Activities entry in the test with microorganisms is given as “G B”. In addition, the “Organism, effect” value is “MRSA (D)” in the test on MRSA; “S. epidermidis (D)” in the test with S. epidermidis; “E. coli (C)” with E. coli; “S. pneumoniae (D)” with S. pneumoniae; “C. jejuni (D)” in the test on C. jejuni; “E. faecalis (D)” in the test with E. faecalis. Moreover, the “Target(s)” value in test [1] (setting [2]) is “S. epidermidis and P. aeruginosa and C. albicans and MRSA”.

For “PF-615: peptide having multiple activities (FLNRFIFYIFTVKTKSALIKNLFLD; Peptide with targeting and/or antimicrobial activity)”, the Activities result in the test on microorganisms is listed as “G B”. Besides, the “Organism, effect” value in the test on MRSA is reported as “MRSA (D)”; in the test with S. epidermidis, “S. epidermidis (D)”; with E. coli, “E. coli (C)”; with S. pneumoniae, “S. pneumoniae (D)”; with C. jejuni, “C. jejuni (D)”; in the test with E. faecalis it was “E. faecalis (D)”.

For “PF-584: peptide having multiple activities (SYIKNLSNQKFLIAF; Peptide with targeting and/or antimicrobial activity)”, the Activities entry in the test with microorganisms is given as “G B”. Moreover, the “Organism, effect” value with MRSA was “MRSA (D)”; with S. epidermidis it was “S. epidermidis (C)”; in the test with E. coli it was “E. coli (C)”; with S. pneumoniae it was “S. pneumoniae (D)”; in the test on C. jejuni, “C. jejuni (D)”; in the test with E. faecalis, “E. faecalis (D)”. In addition, in test [1] (setting [2]), the “Target(s)” value is “S. epidermidis and M. luteus and P. mirabilis and C. albicans and MRSA and S. pneumoniae and E. faecalis and C. jeikeium”.

In the case of “PF-586: peptide having multiple activities (FFNQANYFFKEF; Peptide with targeting and/or antimicrobial activity)”, the Activities entry in the test with microorganisms was “G B”. Besides, the “Organism, effect” value was “MRSA (D)” in the test with MRSA; “S. epidermidis (C)” in the test with S. epidermidis; “E. coli (C)” in the test on E. coli; “S. pneumoniae (D)” in the test with S. pneumoniae; “C. jejuni (D)” with C. jejuni; “E. faecalis (D)” in the test on E. faecalis.

In the case of “PF-469: peptide having multiple activities (chain 1 YKVNYNNIDNHFNTLRH; chain 2 YKVNYNNIDNHFNTLRH; Peptide with targeting and/or antimicrobial activity)”, in the test with microorganisms, the Activities entry is reported as “G B”. Further, the “Organism, effect” value is on record as “MRSA (D)” in the test with MRSA; “S. epidermidis (D)” in the test on S. epidermidis; “E. coli (C)” in the test on E. coli; “S. pneumoniae (D)” in the test on S. pneumoniae; “C. jejuni (D)” with C. jejuni; “E. faecalis (D)” in the test on E. faecalis.

“PF-595: peptide having multiple activities (LQNKIYELLYIKERSKLCS; Peptide with targeting and/or antimicrobial activity)”: the Activities entry in the test with microorganisms was “G B”. For the same substance, the “Organism, effect” value was “MRSA (D)” with MRSA; “S. epidermidis (C)” with S. epidermidis; “E. coli (C)” in the test on E. coli; “S. pneumoniae (R)” in the test with S. pneumoniae; “C. jejuni (D)” with C. jejuni; “E. faecalis (D)” with E. faecalis.

In the case of “PF-592: peptide having multiple activities (IMKNYKYFKLFIVKYALF; Peptide with targeting and/or antimicrobial activity)”, the Activities entry with microorganisms was “G B”. For the same substance, the “Organism, effect” value in the test with MRSA was “MRSA (D)”; with S. epidermidis it was “S. epidermidis (M)”; with E. coli, “E. coli (C)”; in the test with S. pneumoniae, “S. pneumoniae (D)”; with C. jejuni it was “C. jejuni (S)”; in the test with E. faecalis, “E. faecalis (D)”.

As to “PF-596: peptide having multiple activities (SKMWDKILTILILILELIRELIKL; Peptide with targeting and/or antimicrobial activity)”, the Activities result in the test on microorganisms was “G B”. The “Organism, effect” value with MRSA is “MRSA (D)”; with S. epidermidis, “S. epidermidis (D)”; with E. coli, “E. coli (C)”; in the test with S. pneumoniae, “S. pneumoniae (D)”; in the test on C. jejuni, “C. jejuni (D)”; in the test on E. faecalis, “E. faecalis (D)”.

As for “PF-598: peptide having multiple activities (MKFMLEVRNKAISAYKEITRTQI; Peptide with targeting and/or antimicrobial activity)”, the Activities entry with microorganisms was “G B”. Also, the “Organism, effect” value is given as “MRSA (D)” in the test with MRSA; “S. epidermidis (R)” with S. epidermidis; “E. coli (C)” in the test with E. coli; “S. pneumoniae (R)” in the test with S. pneumoniae; “C. jejuni (R)” in the test on C. jejuni; “E. faecalis (R)” in the test with E. faecalis. The “Target(s) (microorganisms bound by the targeting peptide)” value in test [1] (peptide binding in aqueous buffers varied by peptide solubility) is “S. epidermidis and M. luteus and P. mirabilis and P. aeruginosa and C. albicans and MRSA and S. pneumoniae and C. jeikeium”.
